The record followed here is PMC12561670, “Isolation of Dual-Active Drugs with Anticancer and Antibacterial Activities That Target Both Tubulin and FtsZ” (Antibiotics, 2025).

The test system of one test is E. coli. The test is described as follows: In vivo antibacterial activity, mouse peritoneal infection. Set-up: species or system CD-1 male mice. The text has this:
SPF grade CD-1 male mice weighing 30 ± 3 g were purchased from Shanghai Slake Experimental Animal Co., Ltd. (Shanghai, China). […] Immediately following this, the mice were intraperitoneally injected with the test compounds. Each experimental group consisted of five mice, with each compound being tested at two distinct concentration gradients (determined based on the minimum inhibitory concentration, MIC). A separate group received physiological saline as a negative control. The subsequent assessment focused on evaluating the therapeutic potential of these drugs against bacterial infections. On the first and third days post-administration, 2 mL of sterile physiological saline was injected into the peritoneal cavity of each mouse. After a gentle two-minute dilution under sterile conditions, the abdominal fluid was extracted for bacterial enumeration using the plate counting method. Furthermore, the clinical manifestations of each mouse group, encompassing mental status, appetite, and other relevant parameters, were meticulously observed over a seven-day period. On the seventh day, the mice were euthanized, and a thorough macroscopic examination was conducted to assess the pathological changes in various vital organs.

The target in another test is T1, FtsZ protein (Staphylococcus aureus, UniProt P0A031).
T1 construct: His tag; made in house; host or cells: E. coli BL21(DE3)
T1 sequence (P0A031 whole entry): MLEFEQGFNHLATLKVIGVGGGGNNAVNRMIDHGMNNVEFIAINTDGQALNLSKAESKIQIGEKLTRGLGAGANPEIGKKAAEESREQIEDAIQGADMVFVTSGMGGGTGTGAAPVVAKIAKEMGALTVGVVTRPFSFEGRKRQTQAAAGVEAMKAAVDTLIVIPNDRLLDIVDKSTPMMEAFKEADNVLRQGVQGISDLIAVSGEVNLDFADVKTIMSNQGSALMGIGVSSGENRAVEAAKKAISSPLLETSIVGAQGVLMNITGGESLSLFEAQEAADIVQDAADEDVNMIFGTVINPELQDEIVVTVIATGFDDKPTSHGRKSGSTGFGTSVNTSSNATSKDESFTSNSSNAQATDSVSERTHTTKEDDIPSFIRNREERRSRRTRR
Put plainly: Affinity assay by SPR technology. Type of test: binding, S. aureus. The protocol:
FtsZ Pre-Enrichment: FtsZ purified protein was dissolved in deionized water and prepared into a 1 g/L protein stock solution. Afterwards, protein concentration was diluted to 50 mg/L, respectively, using four different pH acetate buffer solutions (pH 4.0, 4.5, 5.0, 5.5). Subsequently, samples were injected, and the response values of protein FtsZ under different pH conditions were detected using the Biacore pre-enrichment system to determine the optimal protein coupling conditions.
FtsZ Coupling: Before coupling, the CM5 chip was first activated by EDC/NHS solution for 7 min; then, protein coupling was carried out, with a coupling time of 10 min and a protein flow rate of 10 μL/min; finally, the unreacted active sites on the chip were blocked by ethanolamine for 7 min.
The compounds were dissolved in DMSO, and then diluted to 50 μM with PBS (final concentration of DMSO was 5%). The mobile phase was a PBS solution containing 5% DMSO. The response value of the samples flowing through the surface of the FtsZ protein was analyzed by the Biacore T200 system. The monomer compounds with a higher response value to FtsZ (higher than or equal to the positive control) were screened as candidate compounds.
The concentration of candidate compounds was diluted by gradient with a double ratio, with concentration ranging from 0 to 64 μM (the final concentration of DMSO was 5%). Then, the binding response value was obtained. Kinetic curves were drawn according to the dose–effect relationship between the response value and the concentration of candidate compounds, and the binding specificity of candidate compounds and FtsZ was determined according to the curve fitting. Thus, small molecular monomers that can bind specifically to the FtsZ protein were found.

The test system of the next test is HepG2. Put plainly: Antiproliferative activity, CCK8. Particulars: Homo sapiens, HepG2, 48 h, read-out: cell viability HepG2. Type of test: cell-based. The protocol:
(§1) Antiproliferative activities of compounds were detected by employing the CCK8 method. HepG2, MCF-7, and Hela cells were cultured to log phase in DMEM medium supplemented with 10% fetal bovine serum. Cells were diluted to 2 × 10^4 cells/mL, and 100 µL of the obtained suspension was seeded in each well of the 96-well microplates, which were then cultured at 37 °C overnight. Subsequently, cells were treated with compounds at different concentrations. After co-culturing for 48 h, wells were washed with PBS three times and filled with 100 μL DMEM complete medium, which contained CCK8. After culturing for 2 h at 37 °C, the absorbance of measured and recorded on an ELISA reader (BioTek-Synergy 4, Winooski, VT, USA) at a test wavelength of 450 nm. Three replicate wells were employed for each drug concentration, and each assay was conducted at least three times.

For another test, the system named is Hela. The test is described as follows: Antiproliferative activity, CCK8. Type of test: cell-based. Particulars: Homo sapiens. As to the method: as §1
The next test has as its system MCF-7. Put plainly: Antiproliferative activity, CCK8. Type of test: cell-based. The settings on record: Homo sapiens. As to the method:
as §1

For another test, the system named is E. coli (ATCC 8739). The test is described as follows: MIC, broth microdilution. Type of test: cell-based. The settings on record: Escherichia coli, ATCC8739; broth microdilution, 18 h, 37 °C; read-out: MIC E. coli (ATCC 8739).
The test system of a further test is P. aeruginosa (DSM 939). Put plainly: MIC, broth microdilution. Type of test: cell-based. The settings on record: Pseudomonas aeruginosa, DSM939; broth microdilution, 18 h, 37 °C; read-out: MIC P. aeruginosa (DSM 939).
A further test deals with S. aureus (ATCC 6538). Put plainly: MIC, broth microdilution. Type of test: cell-based. Particulars: Staphylococcus aureus, ATCC6538; broth microdilution, 18 h, 37 °C; read-out: MIC S. aureus (ATCC 6538).
Where [1] appears, read: 48 h, read-out: cell viability Hela.
Where [2] appears, read: MCF7, 48 h, read-out: cell viability MCF-7.

Each structure is given as a SMILES string. In brackets after ≈: the same amount, converted by molar mass.

With `CC(C)(C)c1[nH]cnc1/C=c1\[nH]c(=O)/c(=C/c2ccccc2)[nH]c1=O` [Compound 23, Plinabulin], the “bacterial count of peritoneal fluid” value with E. coli (mice i.p. E. coli, i.p. compound, days 1 and 3) is reported as “substantially mitigated”. In the test on E. coli (seven-day observation), the “clinical presentation of infected mice” value is given as “exhibited vitality, maintained a healthy appetite”. In addition, the Kd at FtsZ protein amounted to 15.3 µM. Moreover, the “Chi^2” value at FtsZ protein (SPR fit) came to 0.234. Moreover, at FtsZ protein (SPR, CM5 chip), the Rmax is on record as 11.82 RU. Moreover, the viability at 0.1 µM was determined as 30.5% in the test with HepG2, 26% in the test on Hela (setting [1]) and 27.5% in the test on MCF-7 (setting [2]). For the same compound, the viability at 1 µM in the test on HepG2 came to 11.5%; in the test with Hela (setting [1]) it was 19%; in the test on MCF-7 (setting [2]), 10%. Further, the IC50 is 0.01 µM with Hela (abstract only) and 0.02 µM with MCF-7 (MCF7, abstract only). In addition, the MIC worked out at 64 µM (≈ 21.5 µg/mL) in the test with E. coli (ATCC 8739), 32 µM (≈ 10.8 µg/mL) with P. aeruginosa (DSM 939) and 8 µM (≈ 2.69 µg/mL) in the test on S. aureus (ATCC 6538).
